How the values were obtained:
[1] = test system: h-tau42-dependent transmitter block; test: Oral administration of agents to squid, then presynaptic h-tau42 injection and recording of synaptic transmission; assay type: in vivo, squid (Loligo paelli); conditions: systemic administration of agent
Description: Squid received an oral dose of each agent effective for such inhibiting phosphorylation of the tau protein. At 24 hours after the first dose a second dose was given, and the electrophysiological experiments were performed 1 hour after the second feeding. It was determine that after 24 hours of the double administration, an effective concentration of each agent effective for such inhibiting phosphorylation of the tau protein was measured in the CNS of the gastrically intubated squid (n=10 squid). Synapses from the treated squid were microinjected at the presynaptic axon with h-tau42 (an approximate 80 nM final concentration h-tau42 (n=19), considering a 100× dilution factor. Pre- and post-synaptic potentials were recorded for 90 min.
The squid (Loligo paelli) stellate ganglia isolation from the mantle and the electrophysiological techniques used have been described previously (Llinás, et al., Proc. Natl. Acad. Sci. U.S.A. 1985; 82: 3035-3039). Two glass micropipette electrodes impaled the largest (most distal) presynaptic terminal digit at the synaptic junction site while the post-synaptic axon was impaled by one microelectrode at the junctional site. One of the pre-electrodes was used for pressure microinjection of h-tau42 and also supported voltage clamp current feedback, while the second monitored membrane potential. The total volume injected fluctuated between 0.1 and 1 pl. (Llinás, et al., Proc. Natl. Acad. Sci. U.S.A. 1985; 82: 3035-3039). The exact location of injection and the diffusion and steady-state distribution of the protein/fluorescent dye mix (0.001% dextran fluorescein) were monitored using a fluorescence microscope attached to a Hamamatsu camera system (Middlesex, N.J.). In all experiments a good correlation was observed between the localization of the fluorescence and the electrophysiological findings.
Following presynaptic and post-synaptic axon impalements and the determination of normal synaptic transmission (Llinás, et al., Proc. Natl. Acad. Sci. U.S.A. 1985; 82: 3035-3039; Llinás, et al. Proc. Natl. Acad. Sci. U.S.A. 1994; 91: 12990-12993; Lin, et al., Proc. Natl. Acad. Sci. U.S.A. 1990; 87: 8257-8261), the effect of human tau on synaptic release was evaluated by presynaptic microinjections administered under direct visualization using a fluorescent dye/protein mix, reaching a final concentration after diffusion of approximately 80 nM. (See, Materials and Methods) Presynaptic and post-synaptic potentials were recorded simultaneously under current-clamp configuration. Presynaptic spikes were activated every 5 minutes (low-frequency protocol). With this paradigm, it was determined that 5-10 minutes after an injection of h-tau42, a reduction of transmitter release could be observed. With further time, a total block of transmission resulted, within 30-40 minutes depending on the length of the release zone in the preterminal axon (see, e.g. FIG. 2). […] By contrast, following administration of each agent effective for such inhibiting phosphorylation of the tau protein to the squid (see bellow) h-tau42-dependent transmitter block was prevented (see, generally, Figures).

[2] = test system: fast axonal transport (FAT); conditions: Kanaan et al. 2011; squid axons; cited from earlier work

Compound | h-tau42 induced functional and biochemical abnormalities in the presynaptic axon [1] | effect on inhibition of axonal transport by PAD peptide [2]
Cn1cnc(N)c2ncnc1-2 [3-methyladenine] | prevented or ameliorated | –
O=C1CN(/N=C/c2ccc(-c3ccc([N+](=O)[O-])cc3)o2)C(O)=N1 [Dantrolene] | prevented or ameliorated | –
Cn1cc(C2=C(c3coc4ccccc34)C(=O)NC2=O)c2cc(Br)ccc21 [ING-135] | prevented or ameliorated | blocked
[Cl-].[Li+] [LiCl] | prevented or ameliorated | –
C[S+]([O-])c1ccc(-c2nc(-c3ccncc3)c(-c3ccc(F)cc3)[nH]2)cc1 (centres unmarked) [SB203580] | prevented or ameliorated | –
Cn1cc(C2=C(c3ccc(Cl)cc3Cl)C(=O)NC2=O)c2ccccc21 [SB216763] | prevented or ameliorated | –
Xitospongin C | prevented or ameliorated | –
